Laboratory results as given in ChEMBL document CHEMBL1921749, “5-Lipoxygenase-activating protein (FLAP) inhibitors. Part 4: development of 3-[3-tert-butylsulfanyl-1-[4-(6-ethoxypyridin-3-yl)benzyl]-5-(5-methylpyridin-2-ylmethoxy)-1H-indol-2-yl]-2,2-dimethylpropionic acid (AM803), a potent, oral, once daily FLAP inhibitor” (J Med Chem, 2011).

Test system: not listed separately
Experiment: Terminal half life in Sprague-Dawley rat at 2 mg/kg, iv
Type: ADME, organism-based
Parameters: dose 2 mg/kg, route intravenous
Conditions: in vivo, read-out: beta t1/2 (converted)

Going from `Cc1ccc(COc2ccc3c(c2)c(SC(C)(C)C)c(CC(C)(C)C(=O)[O-])n3Cc2ccc(-c3ccc(C)cn3)cc2)nc1.[Na+]` to `CCOc1ccc(-c2ccc(Cn3c(CC(C)(C)C(=O)[O-])c(SC(C)(C)C)c4cc(OCc5ccc(C)cn5)ccc43)cc2)cn1.[Na+]` [FIBOFLAPON SODIUM], the half-life rises from 1 h to 2 h (2-fold).

Molecular target: T1, Arachidonate 5-lipoxygenase-activating protein (Homo sapiens, UniProt P20292)
T1 sequence (P20292 whole entry): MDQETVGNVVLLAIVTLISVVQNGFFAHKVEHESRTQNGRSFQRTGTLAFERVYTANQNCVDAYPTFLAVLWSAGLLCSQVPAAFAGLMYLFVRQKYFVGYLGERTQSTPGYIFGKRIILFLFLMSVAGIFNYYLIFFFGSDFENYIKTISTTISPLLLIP
Experiment: Inhibition of FLAP in human peripheral leukocytes assessed as inhibition of calcium ionophore A23187-induced LTB4 production after 5 mins by ELISA in absence of human serum albumin
Type: cell-based
Conditions: not given

With `COc1ccc(-c2ccc(Cn3c(CC(C)(C)C(=O)O)c(SC(C)(C)C)c4cc(OCc5ccccn5)ccc43)cc2)cn1` the IC50 was 1.2 nM.

Test system: not listed separately
Experiment: AUC in Sprague-Dawley rat at 10 mg/kg, po
Type: ADME, organism-based
Parameters: dose 10 mg/kg, route oral
Conditions: plasma

`Cc1ccc(COc2ccc3c(c2)c(SC(C)(C)C)c(CC(C)(C)C(=O)[O-])n3Cc2ccc(-c3ccc(C)cn3)cc2)nc1.[Na+]` and `CCOc1ccc(-c2ccc(Cn3c(CC(C)(C)C(=O)[O-])c(SC(C)(C)C)c4cc(OCc5ccc(C)cn5)ccc43)cc2)cn1.[Na+]` [FIBOFLAPON SODIUM] are the same in AUC: 26000 ng·h/mL for the first, 26000 ng·h/mL for the second.

Test system: not listed separately
Experiment: Volume of distribution at steady state in Sprague-Dawley rat at 2 mg/kg, iv
Type: ADME, organism-based
Parameters: dose 2 mg/kg, route intravenous
Conditions: in vivo, read-out: Vdss

Compared with `Cc1ccc(COc2ccc3c(c2)c(SC(C)(C)C)c(CC(C)(C)C(=O)[O-])n3Cc2ccc(-c3ccc(C)cn3)cc2)nc1.[Na+]`, `CCOc1ccc(-c2ccc(Cn3c(CC(C)(C)C(=O)[O-])c(SC(C)(C)C)c4cc(OCc5ccc(C)cn5)ccc43)cc2)cn1.[Na+]` [FIBOFLAPON SODIUM] is 4.4-fold higher in Vd: 0.16 L/kg for the first, 0.7 L/kg for the second.

Molecular target: T1, Arachidonate 5-lipoxygenase-activating protein
Experiment: Inhibition of FLAP in human peripheral leukocytes assessed as inhibition of calcium ionophore A23187-induced LTB4 production after 1 hr by ELISA in absence of human serum albumin
Type: cell-based
Conditions: not given

For `COc1ccc(-c2ccc(Cn3c(CC(C)(C)C(=O)O)c(SC(C)(C)C)c4cc(OCc5ccccn5)ccc43)cc2)cn1`, the IC50 was 1.1 nM.

Test system: not listed separately
Experiment: Clearance in Sprague-Dawley rat at 2 mg/kg, iv
Type: ADME, organism-based
Parameters: dose 2 mg/kg, route intravenous
Conditions: in vivo

First: Cc1ccc(COc2ccc3c(c2)c(SC(C)(C)C)c(CC(C)(C)C(=O)[O-])n3Cc2ccc(-c3ccc(C)cn3)cc2)nc1.[Na+]
Second: CCOc1ccc(-c2ccc(Cn3c(CC(C)(C)C(=O)[O-])c(SC(C)(C)C)c4cc(OCc5ccc(C)cn5)ccc43)cc2)cn1.[Na+] [FIBOFLAPON SODIUM]
The clearance of the first is 1.7-fold lower: 3 mL/min/kg for the first, 5.2 mL/min/kg for the second.

Test system: not listed separately
Experiment: Cmax in Sprague-Dawley rat at 10 mg/kg, po
Type: ADME, organism-based
Parameters: dose 10 mg/kg, route oral
Conditions: in vivo

`Cc1ccc(COc2ccc3c(c2)c(SC(C)(C)C)c(CC(C)(C)C(=O)[O-])n3Cc2ccc(-c3ccc(C)cn3)cc2)nc1.[Na+]` and `CCOc1ccc(-c2ccc(Cn3c(CC(C)(C)C(=O)[O-])c(SC(C)(C)C)c4cc(OCc5ccc(C)cn5)ccc43)cc2)cn1.[Na+]` [FIBOFLAPON SODIUM] are within 1.5-fold of each other in Cmax: 14.6 µM for the first, 12.2 µM for the second.

Molecular target: T1, Arachidonate 5-lipoxygenase-activating protein
Experiment: Inhibition of FLAP in human whole blood assessed as inhibition of calcium ionophore A23187-induced LTB4 production preincubated for 5 hrs by ELISA
Conditions: not given

Compared with `COc1ccc(-c2ccc(Cn3c(CC(C)(C)C(=O)O)c(SC(C)(C)C)c4cc(OCc5ccc(C)c(C)n5)ccc43)cc2)cn1`, `CCc1ccc(COc2ccc3c(c2)c(SC(C)(C)C)c(CC(C)(C)C(=O)O)n3Cc2ccc(-c3ccc(OC)nc3)cc2)nc1` is 6.2-fold higher in IC50: 225 nM for the first, 1390 nM for the second. The first is the more potent here.

Going from `COc1ccc(-c2ccc(Cn3c(CC(C)(C)C(=O)O)c(SC(C)(C)C)c4cc(OCc5cn6ccccc6n5)ccc43)cc2)cn1` to `COc1ccc(-c2ccc(Cn3c(CC(C)(C)C(=O)O)c(SC(C)(C)C)c4cc(OCc5ccccn5)ccc43)cc2)cn1`, the IC50 falls from 552 nM to 149 nM (3.7-fold).

First: COc1ccc(-c2ccc(Cn3c(CC(C)(C)C(=O)O)c(SC(C)(C)C)c4cc(OCc5cnc(C)cn5)ccc43)cc2)cn1
Second: COc1ccc(-c2ccc(Cn3c(CC(C)(C)C(=O)O)c(SC(C)(C)C)c4cc(OCc5cnc6ccccc6n5)ccc43)cc2)cn1
The IC50 of the first is 1.6-fold lower: 281 nM for the first, 456 nM for the second.

`Cc1ccc(COc2ccc3c(c2)c(SC(C)(C)C)c(CC(C)(C)C(=O)O)n3Cc2ccc(-c3ccc(C(F)(F)F)cn3)cc2)nc1` and `COc1ccc(-c2ccc(Cn3c(CC(C)(C)C(=O)O)c(SC(C)(C)C)c4cc(OCc5ccc6ccccc6n5)ccc43)cc2)cn1` are within 1.5-fold of each other in IC50: 202 nM for the first, 194 nM for the second.

Molecular target: T1, Arachidonate 5-lipoxygenase-activating protein
Experiment: Inhibition of FLAP in human peripheral leukocytes assessed as inhibition of calcium ionophore A23187-induced LTB4 production after 3 hr by ELISA in presence of 0.5% human serum albumin
Type: cell-based
Conditions: not given

`COc1ccc(-c2ccc(Cn3c(CC(C)(C)C(=O)O)c(SC(C)(C)C)c4cc(OCc5ccccn5)ccc43)cc2)cn1` gave an IC50 of 14 nM.

Molecular target: T1, Arachidonate 5-lipoxygenase-activating protein
Experiment: Inhibition of FLAP in human peripheral leukocytes assessed as inhibition of calcium ionophore A23187-induced LTB4 production after 10 mins by ELISA
Type: cell-based
Conditions: not given

`COc1ccc(-c2ccc(Cn3c(CC(C)(C)C(=O)O)c(SC(C)(C)C)c4cc(OCc5ccc(C)c(C)n5)ccc43)cc2)cn1` and `CCc1ccc(COc2ccc3c(c2)c(SC(C)(C)C)c(CC(C)(C)C(=O)O)n3Cc2ccc(-c3ccc(OC)nc3)cc2)nc1` are the same in IC50: 0.6 nM for the first, 0.6 nM for the second.

First: COc1ccc(-c2ccc(Cn3c(CC(C)(C)C(=O)O)c(SC(C)(C)C)c4cc(OCc5cn6ccccc6n5)ccc43)cc2)cn1
Second: COc1ccc(-c2ccc(Cn3c(CC(C)(C)C(=O)O)c(SC(C)(C)C)c4cc(OCc5ccccn5)ccc43)cc2)cn1
The IC50 of the first is 2.8-fold higher: 1.4 nM for the first, 0.5 nM for the second.

First: COc1ccc(-c2ccc(Cn3c(CC(C)(C)C(=O)O)c(SC(C)(C)C)c4cc(OCc5cnc(C)cn5)ccc43)cc2)cn1
Second: COc1ccc(-c2ccc(Cn3c(CC(C)(C)C(=O)O)c(SC(C)(C)C)c4cc(OCc5cnc6ccccc6n5)ccc43)cc2)cn1
The IC50 of the first is 4.7-fold higher: 3.3 nM for the first, 0.7 nM for the second. The second is the more potent here.

First: Cc1ccc(COc2ccc3c(c2)c(SC(C)(C)C)c(CC(C)(C)C(=O)O)n3Cc2ccc(-c3ccc(C(F)(F)F)cn3)cc2)nc1
Second: COc1ccc(-c2ccc(Cn3c(CC(C)(C)C(=O)O)c(SC(C)(C)C)c4cc(OCc5ccc6ccccc6n5)ccc43)cc2)cn1
The IC50 of the first is 1.6-fold lower: 0.5 nM for the first, 0.8 nM for the second.

Molecular target: T1, Arachidonate 5-lipoxygenase-activating protein
Experiment: Inhibition of FLAP in human whole blood assessed as inhibition of calcium ionophore A23187-induced LTB4 production preincubated for 15 mins by ELISA
Conditions: not given

Compared with `COc1ccc(-c2ccc(Cn3c(CC(C)(C)C(=O)O)c(SC(C)(C)C)c4cc(OCc5ccc(C)c(C)n5)ccc43)cc2)cn1`, `CCc1ccc(COc2ccc3c(c2)c(SC(C)(C)C)c(CC(C)(C)C(=O)O)n3Cc2ccc(-c3ccc(OC)nc3)cc2)nc1` is 2.1-fold higher in IC50: 570 nM for the first, 1200 nM for the second.

First: COc1ccc(-c2ccc(Cn3c(CC(C)(C)C(=O)O)c(SC(C)(C)C)c4cc(OCc5cn6ccccc6n5)ccc43)cc2)cn1
Second: COc1ccc(-c2ccc(Cn3c(CC(C)(C)C(=O)O)c(SC(C)(C)C)c4cc(OCc5ccccn5)ccc43)cc2)cn1
The IC50 of the first is 2.8-fold higher: 980 nM for the first, 349 nM for the second.

Compared with `COc1ccc(-c2ccc(Cn3c(CC(C)(C)C(=O)O)c(SC(C)(C)C)c4cc(OCc5cnc(C)cn5)ccc43)cc2)cn1`, `COc1ccc(-c2ccc(Cn3c(CC(C)(C)C(=O)O)c(SC(C)(C)C)c4cc(OCc5cnc6ccccc6n5)ccc43)cc2)cn1` is 2.6-fold higher in IC50: 208 nM for the first, 542 nM for the second.

`Cc1ccc(COc2ccc3c(c2)c(SC(C)(C)C)c(CC(C)(C)C(=O)O)n3Cc2ccc(-c3ccc(C(F)(F)F)cn3)cc2)nc1` and `COc1ccc(-c2ccc(Cn3c(CC(C)(C)C(=O)O)c(SC(C)(C)C)c4cc(OCc5ccc6ccccc6n5)ccc43)cc2)cn1` are within 1.5-fold of each other in IC50: 435 nM for the first, 502 nM for the second.

Test system: not listed separately
Experiment: Oral bioavailability in Sprague-Dawley rat at 10 mg/kg
Type: ADME, organism-based
Conditions: in vivo

Going from `Cc1ccc(COc2ccc3c(c2)c(SC(C)(C)C)c(CC(C)(C)C(=O)[O-])n3Cc2ccc(-c3ccc(C)cn3)cc2)nc1.[Na+]` to `CCOc1ccc(-c2ccc(Cn3c(CC(C)(C)C(=O)[O-])c(SC(C)(C)C)c4cc(OCc5ccc(C)cn5)ccc43)cc2)cn1.[Na+]` [FIBOFLAPON SODIUM], the bioavailability rises from 40% to 76%.

Molecular target: T1, Arachidonate 5-lipoxygenase-activating protein
Experiment: Inhibition of FLAP in human peripheral leukocytes assessed as inhibition of calcium ionophore A23187-induced LTB4 production after 10 mins by ELISA in presence of 0.5% human serum albumin
Type: cell-based
Conditions: not given

With `COc1ccc(-c2ccc(Cn3c(CC(C)(C)C(=O)O)c(SC(C)(C)C)c4cc(OCc5ccccn5)ccc43)cc2)cn1` the IC50 was 10 nM.

Molecular target: T1, Arachidonate 5-lipoxygenase-activating protein
Experiment: Displacement of [3H]-3-[5-(pyrid-2-ylmethoxy)-3-tert-butylthio-1-benzylindol-2-yl]-2,2-dimethylpropionic acid from FLAP in human polymorphonuclear cell membranes after 1 hr by scintillation counting
Conditions: not given

First: COc1ccc(-c2ccc(Cn3c(CC(C)(C)C(=O)O)c(SC(C)(C)C)c4cc(OCc5ccc(C)c(C)n5)ccc43)cc2)cn1
Second: CCc1ccc(COc2ccc3c(c2)c(SC(C)(C)C)c(CC(C)(C)C(=O)O)n3Cc2ccc(-c3ccc(OC)nc3)cc2)nc1
The IC50 of the first is 3-fold lower: 3.4 nM for the first, 10.1 nM for the second.

Compared with `COc1ccc(-c2ccc(Cn3c(CC(C)(C)C(=O)O)c(SC(C)(C)C)c4cc(OCc5cn6ccccc6n5)ccc43)cc2)cn1`, `COc1ccc(-c2ccc(Cn3c(CC(C)(C)C(=O)O)c(SC(C)(C)C)c4cc(OCc5ccc6ccccc6n5)ccc43)cc2)cn1` is 1.7-fold lower in IC50: 8.9 nM for the first, 5.3 nM for the second.

First: COc1ccc(-c2ccc(Cn3c(CC(C)(C)C(=O)O)c(SC(C)(C)C)c4cc(OCc5cnc(C)cn5)ccc43)cc2)cn1
Second: COc1ccc(-c2ccc(Cn3c(CC(C)(C)C(=O)O)c(SC(C)(C)C)c4cc(OCc5cnc6ccccc6n5)ccc43)cc2)cn1
The IC50 of the first is 2.1-fold lower: 5.4 nM for the first, 11.4 nM for the second. The first is the more potent here.

In the case of `Cc1ccc(COc2ccc3c(c2)c(SC(C)(C)C)c(CC(C)(C)C(=O)O)n3Cc2ccc(-c3ccc(C(F)(F)F)cn3)cc2)nc1`, the IC50 is reported as 2.7 nM.
